Laboratory results as given in patent publication US9603896B2, “Peptide compounds and methods of production and use thereof” (priority 2012, dated 2017).
Square brackets hold non-standard residues; d marks the D form. Ends that are not written are not given here. Peptide text beside a SMILES is read from it. AEEA = NCCOCCOCC(=O)O

Assays:
[1] = tested on: human corneal epithelial cell (HCEC); assay: HCEC chemotaxis, modified Boyden chemotaxis chamber assay; format: cell-based; conditions: for migration of HCECs vs buffer control: 120-146QH at 10^−4, 10^−6, 10^−8, 10^−10 M, 120-146QR at 10^−6, 10^−8 M, HB-EGF 50 ng/ml, rCAP37 250 ng/ml, 3 hours at 37° C; for migration compared with the whole CAP37 protein: 120-146QH at 10^−6 M and 10^−8M
Description: The effect of buffer control (0.1% BSA in Gey's buffer), heparin binding-epidermal growth factor (HB-EGF, 50 ng/ml), recombinant CAP37 (rCAP37, 250 ng/ml), 120-146QH (10^−12M, 10^−10 M, 10^−8 M, 10^−6M, and 10^−4M,) and 120-146QR (10^−10M, 10^−8M, 10^−6M, and 10^−4M) on HCEC chemotaxis was determined by the modified Boyden chemotaxis chamber method. HCEC chemotaxis was measured in response to HB-EGF, rCAP37, and peptides 120-146QH (SEQ ID NO:29) and 120-146QR (SEQ ID NO:28) after incubation for 3 hours at 37° C. Chemotaxis is expressed as a percent migration. The buffer control (no chemoattractant) is arbitrarily assigned the value of 100% migration. Data are expressed as means±SEM and are calculated from 6 observations for each test point. **P<0.01 by Wilcoxon signed-rank test as compared to controls.
Chemotaxis assays were performed using the modified Boyden chemotaxis chamber assay. Peptide 120-146QH was used at 10^−4 M, 10^−6 M, 10^−8 M, 10^−10 M, and 10^−12 M, and peptide 120-146QR was used at 10^−4 M, 10^−6M, 10^−8M, and 10^−10 M.

[2] = tested on: Pseudomonas aeruginosa ATCC® 27853™; format: cell-based
Description: The three peptide compounds BCC01-5RMP (SEQ ID NO:21), BCC02-5RMP (SEQ ID NO:22), and BCC03-5RMP (SEQ ID NO:23) were assayed for in vitro bactericidal activity against Pseudomonas aeruginosa, Escherichia coli, Salmonella typhimurium, and Acinetobacter baumannii. […] The CFU remaining at the end of 60 to 180 minute incubation was determined, and the data plotted as a log reduction in CFU/ml.
Tables 4-6 show the results of various peptides and peptide compounds against P. aeruginosa and E. coli strains. Tables 4 and 5 show the results of an investigation of the effects of peptide or peptide compounds BCC03-5RMP (SEQ ID NO:23), BCC03-MP (SEQ ID NO:24) and BCC03-5R (SEQ ID NO:20) against P. aeruginosa ATCC® strain 27853™ and E. coli ATCC® strain 25922™ (American Type Culture Collection, Manassas, Va.). […] Table 6 compares the activity of several other compounds, including the “5R” versions of BCC01, i.e., SEQ ID NO:18 (which comprises SEQ ID NO:1 with five additional arginines), the “5R” version of BCC02 (i.e., SEQ ID NO:19, which comprises SEQ ID NO:2 with five additional arginines), and BCC03-5RMP (SEQ ID NO:23), and BCC03-MP (SEQ ID NO:24, i.e., without the five additional R residues). The data generally indicate the superiority of BCC03-5RMP (SEQ ID NO:23) against E. coli, and the superiority of the 5R or 5RMP versions of the peptide over the “AEEA only” peptide against P. aeruginosa.
(§1) For FIGS. 10-13, in vitro bactericidal assays were performed using a starting inoculum of 1×10^6 CFU/ml of the bacterial suspension. The CFU remaining at the end of the 60-180 minute incubation was determined, and the data was plotted as log reduction in CFU/ml.
(§2) In particular, each of the test peptides (CAP37 peptides 120-146WR, 120-146WH, and 95-122 (SEQ ID NOs: 30, 31, and 26, respectively)) was used at 25, 12.5, 6.25, and 3.12 μM. Gentamicin was used at 4 μg/ml. 1×10^6/ml Acinetobacter baumannii ATCC® BAA-747″ or Pseudomonas aeruginosa ATCC® 27853™ (American Type Culture Collection, Manassas, Va.) were incubated with the peptides, negative buffer control (tryptone saline), and positive control gentamicin at pH 5.5 or 7.2. A 60 minute incubation was used for Acinetobacter baumannii ATCC® BAA747™, while a 180 minute incubation was used for Pseudomonas aeruginosa ATCC® 27853™. 50 μl aliquots were plated out on agar plates and incubated overnight. Colony forming units were counted after overnight incubation and CFU/ml calculated.
For FIG. 14, 1×10^6/ml Pseudomonas aeruginosa ATCC® 27853™ were incubated with each of the test peptides (CAP37 peptides 120-146WR, 120-146WH, 120-146QR, 120-146QH, 120-146QR-5RMP, and 120-146QH-5RMP (SEQ ID NOs: 30, 31, 28, 29, 32, and 33, respectively)) at 150, 75, and 37.5 μg/ml, or negative buffer control (tryptone saline), for 180 minutes at pH 5.5. 50 μl aliquots were plated out on agar plates and incubated overnight. Colony forming units were counted after overnight incubation and CFU/ml calculated.

[3] = tested on: Acinetobacter baumannii ATCC® BAA-747™; assay: In vitro bactericidal assay (CFU remaining, log reduction); format: cell-based; conditions: for reduction of CFU/ml: 60 minutes, highest peptide concentrations (25 μM)
Description: The three peptide compounds BCC01-5RMP (SEQ ID NO:21), BCC02-5RMP (SEQ ID NO:22), and BCC03-5RMP (SEQ ID NO:23) were assayed for in vitro bactericidal activity against Pseudomonas aeruginosa, Escherichia coli, Salmonella typhimurium, and Acinetobacter baumannii. The starting inoculum for all experiments was 1×10^6 colony forming units (CFU)/ml. The CFU remaining at the end of 60 to 180 minute incubation was determined, and the data plotted as a log reduction in CFU/ml.
as §1, §2

[4] = tested on: P. aeruginosa (ATCC® 27853™); assay: Pseudomonas keratitis model in the mouse eye; format: in vivo
Description: A circular wound was created on the mouse cornea by removing the epithelium and infected with 10^5 colony forming units (CFU) of P. aeruginosa (ATCC® 27853™ (American Type Culture Collection, Manassas, Va.)). Infected wounds were treated with saline (0.9% sodium chloride, vehicle control) or saline containing indicated concentrations of peptide every 15 minutes for 2 hours, then every 30 minutes for 3 hours on the first day. Infected wounds were treated twice on the second day and once on the third day. Mice were killed at 48 hours post-infection, and CFU/eye were quantified. The means were plotted and are representative of 5 to 9 mice per group. Mann Whitney test was performed for each group as compared to the saline control group. *P=0.014.
A circular wound (2 mm) was created on the mouse cornea by removing the epithelium and infecting the wound with 10^5 CFU of P. aeruginosa (ATCC® 27853™ (American Type Culture Collection, Manassas, Va.)). Infected wounds were treated with saline or saline containing indicated concentrations of peptide every 15 minutes for 2 hours, then every 30 minutes for 3 hours on the first day. Infected wounds were treated twice on the second day and once on the third day. Mice were killed at 48 hours post-infection, and the colony forming units per eye (CFU/eye) were quantified. The means are plotted and are representative of 5 to 9 mice per group. Mann Whitney test was performed for each group as compared to the saline control group.
For FIGS. 15-17, in vivo bactericidal activity of the peptides was also investigated using the standard Pseudomonas keratitis model in the mouse eye (FIGS. 15-17). Peptides 120-146QR-5RMP (SEQ ID NO:32), 120-146WH (SEQ ID NO:31), and 120-146WR (SEQ ID NO: 30) were applied topically at doses of 2, 5, 10, and 20 mg/ml to the wounded cornea that had been infected with 10^5 CFU of Pseudomonas aeruginosa. The efficacies of the peptides were compared to treatment with the vehicle control. Mice were euthanized at 48 hours post infection, and the CFU/eye were quantified.

GTRCQVAGWGSQRSGGRLSRFPRFVNV [Peptide 120-146QR]
migration of HCECs vs buffer control [1]: significantly increase migration
migration compared with the whole CAP37 protein [1]: less than the migration obtained with the whole protein

GTRCQVAGWGSWRSGGRLSRFPRFVNV [Peptide 120-146WR]
activity against P. aeruginosa ([2]; 120-146WR at 25 μM, gentamicin 4 μg/ml): highly active
reduction of CFU (FIG. 14) ([2]; pH 5.5, 180 minutes, highest concentrations (150 μg/ml)): 6 logs
reduction of CFU/ml ([2]; pH 7.2, 180 minutes, highest concentrations of peptides (25 μM)): 6 logs
bactericidal activity against Pseudomonas aeruginosa ([2]; pH 7.2, 180 minutes, peptides at 25 μM): as effective as the standard antibiotic gentamicin
activity against A. baumannii ([3]; 12.5 μM): highly active
activity against A. baumannii ([3]; 25 μM): highly active
reduction of CFU/ml ([3]; pH 5.5): ~4 logs
reduction of CFU/ml ([3]; pH 7.2): ~5.5 logs
infection (CFU/eye) at 48 hours post infection vs saline ([4]; topical, 5, 10, and 20 mg/ml): significantly reduced infection

CC(C)C[C@H](NC(=O)[C@H](CCCNC(=N)N)NC(=O)CNC(=O)CNC(=O)[C@H](CO)NC(=O)[C@H](CCCNC(=N)N)NC(=O)[C@H](CCC(N)=O)NC(=O)[C@H](CO)NC(=O)CNC(=O)[C@H](Cc1c[nH]c2ccccc12)NC(=O)CNC(=O)[C@H](C)NC(=O)[C@@H](NC(=O)[C@H](CCC(N)=O)NC(=O)[C@H](CS)NC(=O)[C@H](CCCNC(=N)N)NC(=O)[C@@H](NC(=O)CNC(=O)[C@H](CCCNC(=N)N)NC(=O)[C@H](CCCNC(=N)N)NC(=O)[C@H](CCCNC(=N)N)NC(=O)[C@H](CCCNC(=N)N)NC(=O)COCCOCCNC(=O)COCCOCCN)[C@@H](C)O)C(C)C)C(=O)N[C@@H](CO)C(=O)N[C@@H](CCCNC(=N)N)C(=O)N[C@@H](Cc1ccccc1)C(=O)N1CCC[C@H]1C(=O)N[C@@H](CCCNC(=N)N)C(=O)N[C@@H](Cc1ccccc1)C(=O)N[C@H](C(=O)N[C@@H](CC(N)=O)C(=O)N[C@H](C(=O)N[C@@H](CCCNC(=N)N)C(=O)O)C(C)C)C(C)C [120-146QR-5RMP] (H-[AEEA][AEEA]RRRRGTRCQVAGWGSQRSGGRLSRFPRFVNVR-OH)
reduction in CFU (FIG. 14) ([2]; pH 5.5, 180 minutes, 75 μg/ml): ~6 log
mice with no viable bacteria in the eye after treatment ([4]; 10 and 20 mg/ml groups together): Six of the 10
CFU/eye at 48 hours post infection vs saline ([4]; topical, doses of 10 and 20 mg/ml): significantly reduced the CFU/eye

GTRCQVAGWGSQHSGGRLSRFPRFVNV [Peptide 120-146QH]
migration of HCECs vs buffer control [1]: significantly increase migration
migration compared with the whole CAP37 protein [1]: comparable to the migration obtained with the whole CAP37 protein
